The text below walks through data of patent US9090609B2, “Benzyl-substituted carbamates and use thereof” (BAYER INTELLECTUAL PROPERTY GMBH, priority 2010, dated 2015).

The subject of one assay is aorta rings. The assay is described as follows: Vasorelaxant action in vitro (phenylephrine-contracted aorta rings). The settings on record: Oryctolagus cuniculus; concentration needed to reduce the phenylephrine contraction of rabbit aorta rings by 50%. As to the method:
B-1. Vasorelaxant Action In Vitro
Rabbits are stunned by a blow to the neck and exsanguinated. The aorta is removed, freed from adhering tissue and divided into rings of a width of 1.5 mm. The rings are placed individually under an initial tension in 5 ml organ baths with Krebs-Henseleit solution which is at 37° C., is gassed with carbogen and has the following composition (in each case mM): sodium chloride 119; potassium chloride: 4.8; calcium chloride dihydrate: 1; magnesium sulfate heptahydrate: 1.4; potassium dihydrogenphosphate: 1.2; sodium bicarbonate: 25; glucose: 10. The contractile force is determined with Statham UC2 cells, amplified and digitalized using A/D transducers (DAS 1802 HC, Keithley Instruments Munich), and recorded in parallel on linear recorders. To obtain a contraction, phenylephrine is added to the bath cumulatively in increasing concentration. After several control cycles, the substance to be investigated is added in each further run in increasing dosage in each case, and the height of the contraction achieved is compared with the height of the contraction reached in the last preceding run. This is used to calculate the concentration needed to reduce the magnitude of the control value by 50% (IC50 value). The standard administration volume is 5 μl; the DMSO content in the bath solution corresponds to 0.1%.

The target of assay [1] is T1, recombinant guanylate cyclase reporter cell line (Rattus norvegicus, UniProt P19686+P20595).
T1 construct: expressed in transfected cells; host or cells: recombinant reporter cell line
T1 sequence (P20595 1-619): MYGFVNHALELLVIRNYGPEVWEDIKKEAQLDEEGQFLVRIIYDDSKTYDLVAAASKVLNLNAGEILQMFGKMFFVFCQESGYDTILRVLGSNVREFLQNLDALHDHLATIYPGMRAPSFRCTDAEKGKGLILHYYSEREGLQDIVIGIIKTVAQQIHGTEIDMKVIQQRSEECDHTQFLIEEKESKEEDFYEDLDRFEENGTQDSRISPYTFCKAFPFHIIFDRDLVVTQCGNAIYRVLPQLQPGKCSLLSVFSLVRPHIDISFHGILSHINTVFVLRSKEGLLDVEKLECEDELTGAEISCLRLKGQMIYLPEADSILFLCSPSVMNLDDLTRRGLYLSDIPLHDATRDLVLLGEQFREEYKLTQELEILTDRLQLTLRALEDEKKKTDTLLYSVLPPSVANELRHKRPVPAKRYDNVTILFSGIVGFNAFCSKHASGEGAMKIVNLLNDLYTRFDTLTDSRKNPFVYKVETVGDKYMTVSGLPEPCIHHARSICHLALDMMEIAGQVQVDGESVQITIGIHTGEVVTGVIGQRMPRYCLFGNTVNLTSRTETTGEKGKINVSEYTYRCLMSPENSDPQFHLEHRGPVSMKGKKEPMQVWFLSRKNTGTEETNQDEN
T1 sequence (P19686 1-690): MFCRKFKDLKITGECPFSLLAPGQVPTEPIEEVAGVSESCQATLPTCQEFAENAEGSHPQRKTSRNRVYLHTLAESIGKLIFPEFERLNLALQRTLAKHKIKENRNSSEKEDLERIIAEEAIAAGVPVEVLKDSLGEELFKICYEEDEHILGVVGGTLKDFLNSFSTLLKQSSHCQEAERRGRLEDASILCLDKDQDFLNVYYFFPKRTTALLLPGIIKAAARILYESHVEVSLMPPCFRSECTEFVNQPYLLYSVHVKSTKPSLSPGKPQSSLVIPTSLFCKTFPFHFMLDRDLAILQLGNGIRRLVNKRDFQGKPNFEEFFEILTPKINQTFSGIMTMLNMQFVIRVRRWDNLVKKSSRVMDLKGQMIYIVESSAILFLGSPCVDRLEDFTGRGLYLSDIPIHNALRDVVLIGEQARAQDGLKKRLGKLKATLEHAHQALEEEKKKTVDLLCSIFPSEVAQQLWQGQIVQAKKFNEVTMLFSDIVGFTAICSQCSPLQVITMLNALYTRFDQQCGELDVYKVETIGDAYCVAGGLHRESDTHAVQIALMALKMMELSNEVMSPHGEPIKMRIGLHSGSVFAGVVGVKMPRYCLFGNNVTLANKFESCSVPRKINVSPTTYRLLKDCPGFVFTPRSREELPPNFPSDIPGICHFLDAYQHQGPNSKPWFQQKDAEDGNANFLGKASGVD
The assay can be described thus: Effect on a recombinant guanylate cyclase reporter cell line. The format is cell-based. As to the method: B-2. Effect on a Recombinant Guanylate Cyclase Reporter Cell Line
The cellular activity of the compounds according to the invention is determined using a recombinant guanylate cyclase reporter cell line, as described in F. Wunder et al., Anal. Biochem. 339, 104-112 (2005).

pIC50: −log10 of the molar value.

For the compound `COC(=O)N(Cc1ccccc1)c1cnc(-n2nc(Cc3ccccc3F)c3ncccc32)nc1N` [Example 2, Methyl {4-amino-2-[3-(2-fluorobenzyl)-1H-pyrazolo[4,3-b]pyridin−1-yl]pyrimidin-5-yl}benzylcarbamate], in the assay on aorta rings, the pIC50 was 9.15. In assay [1], the “MEC (minimum effective concentration)” value was 0.3 µM.

Compound `COC(=O)N(Cc1ccccc1F)c1c(N)nc(-n2nc(Cc3ccccc3F)c3ncccc32)nc1N` [Example 3, Methyl {4,6-diamino-2-[3-(2-fluorobenzyl)-1H-pyrazolo[4,3-b]pyridin-1-yl]pyrimidin-5-yl}(2-fluorobenzyl)carbamate] had a pIC50 in the assay on aorta rings of 9.40. The “MEC (minimum effective concentration)” value in assay [1] stood at 0.1 µM.

Consider `COC(=O)N(Cc1ccc(F)cc1)c1c(N)nc(-n2nc(Cc3ccccc3F)c3ncccc32)nc1N` [Example 4, Methyl {4,6-diamino-2-[3-(2-fluorobenzyl)-1H-pyrazolo[4,3-b]pyridin-1-yl]pyrimidin-5-yl}(4-fluorobenzyl)carbamate], for which the pIC50 in the assay on aorta rings is 9.44. The “MEC (minimum effective concentration)” value in assay [1] came out at 0.1 µM.

`COC(=O)N(Cc1ccccc1)c1c(N)nc(-n2nc(Cc3ccccc3F)c3ncccc32)nc1N` [Example 5, Methyl benzyl{4,6-diamino-2-[3-(2-fluorobenzyl)-1H-pyrazolo[4,3-b]pyridin-1-yl]pyrimidin-5-yl}carbamate] gave a pIC50 in the assay on aorta rings of 9.73. Besides, in assay [1], the “MEC (minimum effective concentration)” value was 0.1 µM.

For the compound `CC(C)OC(=O)N(Cc1ccccc1)c1c(N)nc(-n2nc(Cc3ccccc3F)c3ncc(F)cc32)nc1N` [Example 6, Isopropyl benzyl{4,6-diamino-2-[6-fluoro-3-(2-fluorobenzyl)-1H-pyrazolo[4,3-b]pyridin-1-yl]pyrimidin-5-yl}carbamate], in the assay with aorta rings, the pIC50 was 9.13. For the same compound, the “MEC (minimum effective concentration)” value in assay [1] turned out to be 0.1 µM.

For `COC(=O)N(Cc1ccccc1)c1c(N)nc(-n2nc(Cc3ccccc3F)c3ncc(F)cc32)nc1N` [Example 8, Methyl benzyl{4,6-diamino-2-[6-fluoro-3-(2-fluorobenzyl)-1H-pyrazolo[4,3-b]pyridin-1-yl]pyrimidin-5-yl}carbamate], in the assay on aorta rings, the pIC50 was 9.81.
